Reference: ChEMBL document CHEMBL1201862, “PubChem BioAssay data set” (2004)
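Test compounds were applied to cells in 96-well plates for 48 hours at 5 doses. GI50: concentration for 50% inhibition of growth.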 Activity calls are given as the source filed them. Rule as the data show it: active = GI50 up to about 1.1 µM and inactive = higher.

Experiments:
Test in all cases: NCI tumour cell line growth inhibition, 48 h
EKVX = system: EKVX
HCC 2998 = system: HCC 2998
UACC-257 = system: UACC-257
OVCAR-5 = system: OVCAR-5
KM-20L2 = system: KM-20L2
NCI-H226 = system: NCI-H226
NCI-H522 = system: NCI-H522
SK-MEL-2 = system: SK-MEL-2
IGROV-1 = system: IGROV-1
OVCAR-4 = system: OVCAR-4
SF-295 = system: SF-295
U-251 = system: U-251
ACHN = system: ACHN
Malme-3M = system: Malme-3M
RXF 393 = system: RXF 393
SNB-19 = system: SNB-19
XF498 = system: XF498
UO-31 = system: UO-31
LOX IMVI = system: LOX IMVI
M19-MEL = system: M19-MEL
SNB-78 = system: SNB-78
A549 = system: A549
RXF 631 = system: RXF 631
DMS-273 = system: DMS-273
MOLT-4 = system: MOLT-4
DLD-1 = system: DLD-1
HOP-62 = system: HOP-62
COLO 205 = system: COLO 205
NCI-H23 = system: NCI-H23
SK-MEL-28 = system: SK-MEL-28
HCT-15 = system: HCT-15
SNB-75 = system: SNB-75
786-0 = system: 786-0
HOP-92 = system: HOP-92
LXFL 529 = system: LXFL 529
K562 = system: K562
SN12C = system: SN12C
SR = system: SR
SF-268 = system: SF-268
DMS-114 = system: DMS-114
RPMI-8226 = system: RPMI-8226
SF-539 = system: SF-539
M14 = system: M14
NCI-H460 = system: NCI-H460
SK-MEL-5 = system: SK-MEL-5
CAKI-1 = system: CAKI-1
KM12 = system: KM12
CCRF-CEM = system: CCRF-CEM
SK-OV-3 = system: SK-OV-3
UACC-62 = system: UACC-62
HL-60 = system: HL-60
HT-29 = system: HT-29
OVCAR-3 = system: OVCAR-3
HOP-18 = system: HOP-18
A498 = system: A498
TK-10 = system: TK-10
OVCAR-8 = system: OVCAR-8
SW-620 = system: SW-620

## CN(C)c1ccc(C(=C2C=CC(=[N+](C)C)C=C2)c2ccc(N(C)C)cc2)cc1 [GENTIAN VIOLET]
EKVX
  GI50: 0.368 µM (active)
HCC 2998
  GI50: 0.216 µM (active)
UACC-257
  GI50: 0.176 µM (active)
OVCAR-5
  GI50: 0.202 µM (active)
KM-20L2
  GI50: 0.206 µM (active)
NCI-H226
  GI50: 0.179 µM (active)
NCI-H522
  GI50: 0.298 µM (active)
SK-MEL-2
  GI50: 0.207 µM (active)
IGROV-1
  GI50: 0.21 µM (active)
OVCAR-4
  GI50: 0.264 µM (active)
SF-295
  GI50: 0.0402 µM (active)
U-251
  GI50: 0.0354 µM (active)
ACHN
  GI50: 0.175 µM (active)
Malme-3M
  GI50: 0.245 µM (active)
RXF 393
  GI50: 0.201 µM (active)
SNB-19
  GI50: 0.347 µM (active)
XF498
  GI50: 0.0363 µM (active)
UO-31
  GI50: 0.318 µM (active)
LOX IMVI
  GI50: 0.0379 µM (active)
M19-MEL
  GI50: 0.173 µM (active)
SNB-78
  GI50: 0.637 µM (active)
A549
  GI50: 0.0395 µM (active)
RXF 631
  GI50: 0.185 µM (active)
DMS-273
  GI50: 0.22 µM (active)
MOLT-4
  GI50: 0.144 µM (active)
DLD-1
  GI50: 0.0673 µM (active)
HOP-62
  GI50: 0.375 µM (active)
COLO 205
  GI50: 0.189 µM (active)
NCI-H23
  GI50: 0.0594 µM (active)
SK-MEL-28
  GI50: 0.53 µM (active)
HCT-15
  GI50: 0.334 µM
SNB-75
  GI50: 0.182 µM (active)
786-0
  GI50: 0.0923 µM (active)
HOP-92
  GI50: 0.196 µM (active)
LXFL 529
  GI50: 0.0579 µM (active)
K562
  GI50: 0.0327 µM (active)
SN12C
  GI50: 0.21 µM (active)
SR
  GI50: 0.211 µM (active)
SF-268
  GI50: 0.133 µM (active)
DMS-114
  GI50: 0.13 µM (active)
RPMI-8226
  GI50: 0.0237 µM (active)
SF-539
  GI50: 0.258 µM (active)
M14
  GI50: 0.163 µM (active)
NCI-H460
  GI50: 0.0574 µM (active)
SK-MEL-5
  GI50: 0.0809 µM (active)
CAKI-1
  GI50: 0.34 µM (active)
KM12
  GI50: 0.0942 µM (active)
CCRF-CEM
  GI50: 0.102 µM (active)
SK-OV-3
  GI50: 0.224 µM (active)
UACC-62
  GI50: 0.143 µM (active)
HL-60
  GI50: 0.04 µM (active)

## C[C@]12CCc3nonc3C1CC[C@@H]1C2CC[C@]2(C)C(=O)CCC12 (stereo partly drawn)
EKVX
  GI50: 17.1 µM (inactive)
HCC 2998
  GI50: 26.5 µM (inactive)
HT-29
  GI50: 17.2 µM (inactive)
OVCAR-3
  GI50: 25.5 µM (inactive)
UACC-257
  GI50: > 10 µM (inactive)
OVCAR-5
  GI50: > 100 µM (inactive)
KM-20L2
  GI50: 26.5 µM (inactive)
NCI-H226
  GI50: 76.9 µM (inactive)
NCI-H522
  GI50: 19.8 µM (inactive)
SK-MEL-2
  GI50: 24.5 µM (inactive)
IGROV-1
  GI50: 67.1 µM (inactive)
OVCAR-4
  GI50: > 100 µM (inactive)
SF-295
  GI50: 26.3 µM (inactive)
U-251
  GI50: 48.6 µM (inactive)
ACHN
  GI50: 74 µM (inactive)
Malme-3M
  GI50: 24.9 µM (inactive)
RXF 393
  GI50: 35.2 µM (inactive)
HOP-18
  GI50: > 100 µM (inactive)
SNB-19
  GI50: 81.1 µM (inactive)
XF498
  GI50: 17.5 µM (inactive)
UO-31
  GI50: 20.6 µM (inactive)
LOX IMVI
  GI50: 21.5 µM (inactive)
A498
  GI50: 22.9 µM (inactive)
TK-10
  GI50: > 10 µM (inactive)
M19-MEL
  GI50: 25.8 µM (inactive)
SNB-78
  GI50: 59.6 µM (inactive)
A549
  GI50: 25.8 µM (inactive)
RXF 631
  GI50: 57.8 µM (inactive)
DMS-273
  GI50: 20.7 µM (inactive)
MOLT-4
  GI50: 22.4 µM (inactive)
DLD-1
  GI50: 50 µM (inactive)
HOP-62
  GI50: > 100 µM (inactive)
COLO 205
  GI50: 24.3 µM (inactive)
NCI-H23
  GI50: 30.8 µM (inactive)
SK-MEL-28
  GI50: > 10 µM (inactive)
HCT-15
  GI50: 31.2 µM
SNB-75
  GI50: 28.8 µM (inactive)
786-0
  GI50: > 100 µM (inactive)
HOP-92
  GI50: 20 µM (inactive)
LXFL 529
  GI50: 35.9 µM (inactive)
K562
  GI50: 33.7 µM (inactive)
SN12C
  GI50: 35.1 µM (inactive)
SF-268
  GI50: 39.4 µM (inactive)
DMS-114
  GI50: 22.4 µM (inactive)
RPMI-8226
  GI50: 17.5 µM (inactive)
SF-539
  GI50: 20.9 µM (inactive)
M14
  GI50: 64.9 µM (inactive)
OVCAR-8
  GI50: 31.2 µM (inactive)
NCI-H460
  GI50: > 100 µM (inactive)
SK-MEL-5
  GI50: 17.5 µM (inactive)
SW-620
  GI50: 40.1 µM (inactive)
CAKI-1
  GI50: 14.8 µM (inactive)
KM12
  GI50: 20.9 µM (inactive)
CCRF-CEM
  GI50: 24.1 µM (inactive)
SK-OV-3
  GI50: 33 µM (inactive)
UACC-62
  GI50: 21.7 µM (inactive)
HL-60
  GI50: 15.5 µM (inactive)
